What was measured:
[1] = system: soybean cyst nematode J2s; assay: Soybean cyst nematode J2 treatment in Petri dish (cuticle covering, molting, death); type: in vivo; conditions: for MEAN SCN Covered Cuticle / MEAN SCN Dead J2s: ten freshly hatched J2s per dish, three replicates
Excerpt: Different developmental stages of soybean cyst nematode were targeted for treatment in soil. Soybean cyst nematode has an egg stage, four juvenile stages (samples J1 to J4), adult male and female stages. From J1 to adult development, during each development stage, the nematode undergoes a molt, that is, a shedding of the outside cuticle and forming a new cuticle.
Ten freshly hatched J2s were removed from pure culture and added to three different concentrations (0.5 weight %, […], and 0.12 weight % of Composition solution in a […] Petri dish containing DI water. Composition is (CH3O)3Si(CH2)3N^+ C18H37(CH3)2 Cl^−.
Observations were made over time under an inverted microscope and compound microscope and for both soybean cyst nematode in Composition and also in just DI water which were replicated three times.

[2] = system: soybean cyst nematode J2s; assay: as above; type: in vivo; conditions: 0.25% Composition in DI water; ten freshly hatched J2s per dish, three replicates

`CCCCCCCCCCCCCCCCCC[N+](C)(C)CCC[Si](OC)(OC)OC.[Cl-]` [Composition, 3-(trimethoxysilyl)-propyldimethyloctadecyl ammonium chloride] was tested, and the “MEAN SCN Covered Cuticle” value ([1]; 0.12% Composition in DI water) was 5.3, the “MEAN SCN Dead J2s” value ([1]; 0.12% Composition in DI water) was 6.66 and the “MEAN SCN Covered Cuticle” value ([1]; 0.5% Composition in DI water) was 5.16. The “MEAN SCN Dead J2s” value ([1]; 0.5% Composition in DI water) was 8.00, the “Microscopic observation of J2s after one day” value ([1]; all concentrations, after one day) was “accumulates on the cuticle of J2s” and the “Microscopic observation of J2s on the second day” value ([1]; all concentrations, second day) was “J2s shed the cuticle”. For the same molecule, the “Statistical effect on soybean cyst nematode J2s (covered cuticles and dead nematodes versus treatment)” value ([1]; all tested concentrations) was “significantly affects the soybean cyst nematode J2s”, the “Overall effect on the nematode in vitro” value ([1]; in vitro) was “cuticle disruption and therefore accelerated molting of the nematode in vitro and ultimate death of the nematodes” and the “MEAN SCN Covered Cuticle” value [2] was 5.16. The “MEAN SCN Dead J2s” value [2] was 7.66.
